Data published in patent US10150737B2, “Compounds for controlling arthropods” (priority 2013, dated 2018).

Legend:
[1] = test system: Spodoptera frugiperda; assay: Spodoptera frugiperda - spray test; format: in vivo; conditions: caterpillars on maize leaf discs, after 7 days
Outline: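 Maize leaf discs sprayed with compound formulated in acetone/DMF and diluted in water containing 1000 ppm alkylaryl polyglycol ether emulsifier, then infested with armyworm caterpillars after drying. Efficacy scored after 7 days as % caterpillars killed (100% all, 0% none).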

[2] = test system: Musca domestica; assay: Musca domestica test; format: in vivo; conditions: application rate 100 ppm; adult houseflies; after 2 days
Procedure: Solvent: dimethyl sulphoxide
To produce an appropriate active ingredient formulation, 10 mg of active ingredient are mixed with 0.5 ml of dimethyl sulphoxide, and the concentrate is diluted with water to the desired concentration.
Vessels containing a sponge treated with sugar solution and the active ingredient formulation of the desired concentration are populated with 10 adult houseflies (Musca domestica).
After 2 days, the kill in % is determined. 100% means that all of the flies have been killed; 0% means that none of the flies have been killed.

[3] = test system: Phaedon cochleariae; assay: Phaedon cochleariae - spray test; format: in vivo; conditions: larvae on Chinese cabbage leaf discs, after 7 days
Outline: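 Chinese cabbage leaf discs sprayed with compound formulated in acetone/DMF and water containing 1000 ppm emulsifier; once dry, infested with mustard beetle larvae. Efficacy (% larvae killed) scored after 7 days.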

[4] = logP determination by HPLC on a reversed-phase column (C18); format: physicochemical; conditions: for logP^a): HPLC-MS method a); for log P: HPLC-MS; for logP: HPLC, C18 reversed phase, acetonitrile/water with formic acid, EEC Directive 79/831 Annex V.A8
[5] = test system: Boophilus microplus; assay: Boophilus microplus - injection test; format: in vivo; conditions: application rate 20 μg/animal; injection into engorged adult female ticks; after 7 days
Outline: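 Active ingredient in DMSO, 1 μl injected into the abdomen of 5 engorged adult female ticks, then held in a climate-controlled room. Efficacy scored after 7 days from laying of fertile eggs, with non-fertile-looking eggs kept about 42 days for larval hatch; 100% means no fertile eggs.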

[6] = test system: Myzus persicae; assay: Myzus persicae - spray test; format: in vivo; conditions: Chinese cabbage leaf discs, after 6 days
Procedure: Solvent: 78 parts by weight of acetone and 1.5 parts by weight of dimethylformamide
Emulsifier: alkylaryl polyglycol ether
To produce an appropriate active ingredient formulation, 1 part by weight of active ingredient is dissolved using the specified parts by weight of solvent and made up with water containing an emulsifier concentration of 1000 ppm until the desired concentration is attained. To produce further test concentrations, the preparation is diluted with emulsifier-containing water.
Discs of Chinese cabbage leaves (Brassica pekinensis) infested by all stages of the green peach aphid (Myzus persicae) are sprayed with an active ingredient formulation of the desired concentration.
After 6 days, efficacy in % is determined. 100% means that all the aphids have been killed; 0% means that none of the aphids have been killed.

[7] = test system: Ctenocephalides felis; assay: Ctenocephalides felis - oral test; format: in vivo; conditions: application rate 100 ppm in citrated cattle blood; after 2 days
Outline: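 Compound in DMSO diluted into citrated cattle blood, fed through a parafilm membrane to about 20 unfed adult cat fleas. Kill in % scored after 2 days (100% = all dead).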

[8] = test system: Tetranychus urticae; assay: Tetranychus urticae - spray test, OP-resistant; format: in vivo; conditions: bean leaf discs, after 6 days
Outline: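 Compound dissolved in acetone/DMF, diluted with water containing 1000 ppm alkylaryl polyglycol ether emulsifier to test concentrations. Bean leaf discs infested with all stages of spider mites were sprayed; % kill determined after 6 days (100% = all mites dead, 0% = none).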

[9] = test system: Lucilia cuprina; assay: Lucilia cuprina test; format: in vivo; conditions: application rate 100 ppm; L1 larvae; after 2 days
Outline: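 About 20 L1 larvae placed on minced horsemeat treated with compound, formulated in DMSO and diluted with water to test concentration. Kill in % scored after 2 days (100% = all larvae dead, 0% = none).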

[10] = test system: Ctenocephalides felis; assay: Ctenocephalides felis - in vitro contact tests with adult cat fleas; format: in vivo; conditions: application rate 5 μg/cm2 (=500 g/ha); after 48 h; fleas dead or moribund
Procedure: For the coating of the test tubes, 9 mg of active ingredient are first dissolved in 1 ml of acetone p.a. and then diluted to the desired concentration with acetone p.a. 250 μl of the solution are distributed homogeneously on the inner walls and base of a 25 ml test tube by turning and rocking on an orbital shaker (rocking rotation at 30 rpm for 2 h). With 900 ppm active ingredient solution and internal surface area 44.7 cm^2, given homogeneous distribution, an area-based dose of 5 μg/cm^2 is achieved.
After the solvent has evaporated off, the tubes are populated with 5-10 adult cat fleas (Ctenocephalides felis), sealed with a perforated plastic lid and incubated in a horizontal position at room temperature and ambient humidity. After 48 h, efficacy is determined. To this end, the test tubes are stood upright and the fleas are knocked to the base of the tube. Fleas which remain motionless at the base or move in an uncoordinated manner are considered to be dead or moribund.
100% efficacy means that all the fleas were dead or moribund. 0% efficacy means that no fleas were harmed.

[11] = reversed-phase column (C18), Table I-T3

SMILES | efficacy ([1]; application rate 500 g/ha) | efficacy (kill) [2] | efficacy ([3]; application rate 500 g/ha) | logP^a) [4] | logP^a) [4, 11] | efficacy (laying of fertile eggs) [5] | efficacy ([6]; application rate 500 g/ha) | efficacy (kill) [7] | efficacy ([8]; application rate 500 g/ha) | efficacy (kill) [9] | efficacy [10] | efficacy ([1]; application rate 100 g/ha) | efficacy ([3]; application rate 100 g/ha) | efficacy ([8]; application rate 100 g/ha) | logP^a) ([4]; reversed-phase column (C18)) | log P [4, 11] | efficacy ([6]; application rate 100 g/ha) | logP [4]
Cc1cc(C(F)(C(F)(F)F)C(F)(F)F)cc(C)c1-n1cc(-c2cncc(C(=O)NC3(C#N)CC3)c2)cn1 [I-T3-8] | 100% | 100% | 100% | 3.4 | 3.4 | 100% | 90% | 100% | 100% | 100% |  |  |  |  |  |  |  | 
Cc1cc(C(F)(C(F)(F)F)C(F)(F)F)cc(C)c1-n1cc(-c2cccc(C(=O)NC3CC3)c2F)cn1 [I-T3-9] | 100% |  | 100% | 4.3 | 4.3 | 100% |  | 100% | 100% | 100% | 100% |  |  |  |  |  |  | 
Cc1cc(C(F)(C(F)(F)F)C(F)(F)F)cc(C)c1-n1cc(-c2cc(C(=O)NC3CC3)ccc2F)cn1 [I-T3-13] |  |  |  | 4.5 | 4.5 | 100% |  | 80% |  |  | 100% |  |  |  |  |  |  | 
Cc1cc(C(F)(C(F)(F)F)C(F)(F)F)cc(C)c1-n1cc(-c2cc(C(=O)NC3(C#N)CC3)c(Cl)cc2F)cn1 [I-T3-17] | 100% |  | 100% | 4.4 | 4.4 | 100% |  | 95% |  | 100% | 100% |  |  |  |  |  |  | 
O=C(NC1CC1)c1cc(-c2cnn(-c3ccc(C(F)(C(F)(F)F)C(F)(F)F)cc3Cl)c2)ccc1Cl [I-T3-31] | 100% | 100% | 100% | 4.3 | 4.3 | 100% |  | 100% | 100% | 100% | 100% |  |  |  |  |  |  | 
Cc1cc(C(F)(C(F)(F)F)C(F)(F)F)cc(C(F)(F)F)c1-n1cc(-c2ccc(Cl)c(C(=O)NCC(F)(F)F)c2)cn1 [I-T3-84] |  | 100% |  | 4.7 | 4.7 | 100% |  | 100% |  | 100% | 100% | 100% | 100% | 100% |  |  |  | 
O=C(NC1CC1)c1cccc(-c2cnn(-c3ncc(C(F)(F)F)cc3Cl)c2)c1 [I-T3-122] |  |  |  |  |  |  | 100% |  |  |  |  |  |  |  | 3.0 | 3.0 |  | 
CNc1ncc(-c2cnn(-c3c(Cl)cc(C(F)(C(F)(F)F)C(F)(F)F)cc3Cl)c2)cc1C(=O)NC1CC1 [I-T3-136] |  | 100% |  |  |  | 100% |  | 100% |  | 100% | 100% | 100% | 100% |  | 3.5 | 3.5 |  | 
O=C(NC1CC1)c1cc(-c2cnn(-c3c(Cl)cc(C(F)(C(F)(F)F)C(F)(F)F)cc3Cl)c2)cnc1NC1CC1 [I-T3-137] |  | 100% |  |  |  | 100% |  | 100% |  | 80% | 100% | 100% | 100% | 90% | 3.4 | 3.4 |  | 
COCCNc1ncc(-c2cnn(-c3c(Cl)cc(C(F)(C(F)(F)F)C(F)(F)F)cc3Cl)c2)cc1C(=O)NC1CC1 [I-T3-138] |  |  |  |  |  |  |  |  |  |  | 100% | 100% | 83% | 90% | 4.1 | 4.1 |  | 
CCNC(=O)c1cc(-c2cnn(-c3c(Cl)cc(C(F)(F)F)cc3Cl)c2)cnc1C [I-T3-147] |  |  |  |  |  |  |  |  |  |  | 100% |  |  | 90% | 4.0 | 4.0 |  | 
CCSc1cc(C(F)(F)F)cc(Cl)c1-n1cc(-c2ccc(Cl)c(C(=O)NC3(C#N)CC3)c2)cn1 [I-T3-170] |  |  |  |  |  |  |  |  |  |  |  | 100% | 100% | 100% |  | 3.7 | 100% | 
N#Cc1cc(C(F)(F)F)cc(Cl)c1-n1cc(-c2ccc(Cl)c(C(=O)NC3CC3)c2)cn1 [I-T3-174] |  |  |  |  |  |  |  |  |  |  |  | 100% | 100% | 100% |  | 3.1 | 100% | 
CC[S+]([O-])c1cc(C(F)(F)F)cc(Cl)c1-n1cc(-c2ccc(Cl)c(C(=O)NC3CC3)c2)cn1 (centres unmarked) [I-T3-179] |  |  |  |  |  |  |  |  |  |  |  |  | 100% | 100% |  | 3.0 | 100% | 
O=C(NC1CC1)c1cc(-c2cnn(-c3c(F)cc(C(F)(F)F)cc3Cl)c2)ccc1Cl [I-T3-186] | 100% |  | 100% |  |  |  | 90% |  | 100% |  |  |  |  |  |  | 3.6 |  | 
N#CC1(NC(=O)c2cc(-c3cnn(-c4c(F)cc(C(F)(F)F)cc4Cl)c3)ccc2Cl)CC1 [I-T3-187] | 100% |  | 100% |  |  |  | 100% |  | 100% |  |  |  |  |  |  | 3.3 |  | 
N#CC1(CNC(=O)c2cc(-c3cnn(-c4c(Cl)cc(C(F)(C(F)(F)F)C(F)(F)F)cc4C(F)(F)F)c3)ccc2Cl)CC1 [I-T3-199] |  |  |  |  |  |  |  |  |  |  | 100% |  |  |  |  |  |  | 
Cc1cc(C(F)(C(F)(F)F)C(F)(F)F)cc(C)c1-c1cc(-c2ccc(Cl)c(C(=O)NCC(F)(F)F)c2)on1 [I-T22-3] |  | 100% |  |  |  | 100% |  | 100% |  | 100% | 100% | 100% | 100% | 90% |  |  |  | 5
N#CC1(NC(=O)c2cc(-c3cc(-c4c(Cl)cc(C(F)(C(F)(F)F)C(F)(F)F)cc4Cl)on3)ccc2Cl)CC1 [I-T23-2] | 100% | 100% | 100% |  |  | 100% |  | 100% | 100% | 100% | 100% |  |  |  |  |  |  | 4.8
Cc1cc(C(F)(C(F)(F)F)C(F)(F)F)cc(C)c1-n1ccc(-c2ccc(Cl)c(C(=O)NC3CC3)c2)c1 [I-T46-2] |  |  |  |  |  | 100% |  | 100% |  | 100% | 100% | 100% | 100% |  |  |  |  | 5.0
